“Also recorded” adds a separate entry of the source.
Assays:
[1] = target: T1, ecdysone receptor (EcR)/USP (Drosophila melanogaster, UniProt P34021); experiment: Transient transfection reporter assay in CV-1 cells, ecdysone receptor with USP; format: cell-based; details: 1 μM muristerone A, unmodified ecdysone receptor
T1 construct: expressed in transfected cells; host or cells: CV-1 cells
T1 sequence (P34021 1-878): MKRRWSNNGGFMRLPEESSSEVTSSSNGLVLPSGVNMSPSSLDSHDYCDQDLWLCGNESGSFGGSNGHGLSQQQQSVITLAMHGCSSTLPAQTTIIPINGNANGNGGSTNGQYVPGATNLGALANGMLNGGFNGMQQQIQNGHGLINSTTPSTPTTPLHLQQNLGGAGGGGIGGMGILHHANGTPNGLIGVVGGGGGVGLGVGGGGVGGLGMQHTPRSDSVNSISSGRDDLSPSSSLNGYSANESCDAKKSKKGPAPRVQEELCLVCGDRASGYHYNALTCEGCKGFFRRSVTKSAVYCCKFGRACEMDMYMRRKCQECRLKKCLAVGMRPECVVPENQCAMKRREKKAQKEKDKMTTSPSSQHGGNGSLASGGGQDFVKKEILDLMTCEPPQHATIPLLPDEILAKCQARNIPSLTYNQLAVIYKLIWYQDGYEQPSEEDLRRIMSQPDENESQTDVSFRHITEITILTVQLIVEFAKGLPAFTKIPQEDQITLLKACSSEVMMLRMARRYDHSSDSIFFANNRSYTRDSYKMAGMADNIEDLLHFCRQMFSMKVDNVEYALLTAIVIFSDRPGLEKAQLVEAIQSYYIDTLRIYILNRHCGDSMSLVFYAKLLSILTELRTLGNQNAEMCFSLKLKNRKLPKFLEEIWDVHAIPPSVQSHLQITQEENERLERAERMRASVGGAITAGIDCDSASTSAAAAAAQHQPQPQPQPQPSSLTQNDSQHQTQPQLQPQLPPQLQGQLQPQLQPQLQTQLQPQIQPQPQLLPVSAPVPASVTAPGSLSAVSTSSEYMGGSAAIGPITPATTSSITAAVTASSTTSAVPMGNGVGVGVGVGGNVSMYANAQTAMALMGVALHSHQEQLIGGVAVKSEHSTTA
T1 sequence (P20153 1-508 partner): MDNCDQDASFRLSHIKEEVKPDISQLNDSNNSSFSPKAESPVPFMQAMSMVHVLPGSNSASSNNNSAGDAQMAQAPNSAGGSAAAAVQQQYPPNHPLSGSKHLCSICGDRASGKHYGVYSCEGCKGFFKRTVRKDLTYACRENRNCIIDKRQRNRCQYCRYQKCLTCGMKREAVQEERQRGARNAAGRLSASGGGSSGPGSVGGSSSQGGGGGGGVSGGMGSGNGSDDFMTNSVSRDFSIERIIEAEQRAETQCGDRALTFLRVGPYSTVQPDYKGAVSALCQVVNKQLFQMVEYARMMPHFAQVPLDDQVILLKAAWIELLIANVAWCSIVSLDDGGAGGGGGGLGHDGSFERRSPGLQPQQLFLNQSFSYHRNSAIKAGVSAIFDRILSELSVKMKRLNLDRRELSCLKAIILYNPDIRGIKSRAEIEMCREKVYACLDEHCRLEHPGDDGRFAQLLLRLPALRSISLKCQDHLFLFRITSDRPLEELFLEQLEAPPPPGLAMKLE
Protocol: CV-1 cells were maintained in DMEM supplemented with 10%. Fetal Bovine Serum. Transient transfections were performed using DOTAP transfection reagent (Boehringer-Mannheim). Transfections using β-galactosidase as the reporter were assayed either by Galactolight luminescent assay (Tropix, Bedford, Mass.) or by standard liquid ONPG assay (Sigma, St. Louis, Mo.). The values were normalized by co-transfection of CMX-luciferase. Transfections using luciferase as the reporter were assayed by standard techniques using luciferin and ATP. These values were normalized by co-transfection of CMX-β-galactosidase. Hormone treated cells were treated with ethanol, 50 μM Juvenile Hormone III (Sigma), 1 μM muristerone A (Zambon, Bresso, IT), or 1 μM dexamethasone (Sigma) unless otherwise noted.
To maximize the sensitivity of the invention ecdysone inducible system, modifications of the ecdysone receptor were made. The N-terminal transactivation domain of the ecdysone receptor was replaced by the corresponding domain of the glucocorticoid receptor (GR), resulting in the modified ecdysone receptor GEcR (See FIG. 1D). CV-1 cells were transfected with the plasmid CMX-GEcR encoding the modified ecdysone receptor as discussed above. […]

[2] = test system: CV-1 cells transfected with CMX-GEcR, CMX-hRXRa, and EcREx5-DMTV-Luc; experiment: Bioavailability study: serum of injected mice tested on transfected CV-1 cells; format: in vivo
Protocol: For muristerone bioavailability studies, adult mice were injected intraperitoneally with sesame oil with or without […] of muristerone, and were subsequently sacrificed for serum collection. After twelve hours, blood was drawn from the mice, and the serum was isolated by brief centrifugation of the whole blood. In order to conduct transfection assays to test for muristerone activity, serum from sesame oil injected mice was divided, and half was supplemented with muristerone to a final concentration of 10 μM. The three batches of mouse serum were diluted 1:10 in DMEM and placed onto CV-1 cells transfected with CMX-GEcR, CMX-hRXRa, and EcREx5-DMTV-Luc.

[3] = test system: adult mice; experiment: Toxicity study in adult mice; format: in vivo; details: intraperitoneal, 20 mg in sesame oil, observed approximately two months
Protocol: In order to use muristerone as a potential hormone in mice, its toxicity and bioavailability was examined. For toxicity studies, adult mice were injected intraperitonealy with 20 mg of muristerone A suspended in sesame oil. The mice were then observed for approximately two months. […] In addition to the inert qualities of muristerone (an ecdysone), overexpression of VpEcR and RXR appears not to be toxic.

[4] = test system: pregnant mice; experiment: Teratogenic study in pregnant mice; format: in vivo; details: 20 mg in sesame oil, mother and pups observed three months
[5] = test system: N13 cells (293 cells with VpEcR, RXR and ecdysone inducible reporter); experiment: X-gal staining of stable cell line N13; format: cell-based; details: 24 hours of treatment with 1 μM muristerone; 3 hours of staining
Protocol: Stable cell lines were generated containing the modified ecdysone receptor VpEcR, a heterodimeric partner (RXR), and an ecdysone inducible reporter (FIG. 2). 293 cells were transfected with the following linearized plasmids, pRC-ESHβ, EcREx5-ΔMTV-Luc, CMX-VpEcR, and CMX-hRXRa. The following day, the cells were split 1:10 and were allowed to recover one day prior to selection with 1 mg/ml G418 (GIBCO). After 14 days of selection, 14 individual clones were isolated and grown separately in the presence of 0.5 mg/ml G418.
One of these cell lines, N13, was grown in the presence or absence of 1 μM muristerone for 20 hours. Cell lysates were then assayed for β-galactosidase and luciferase activities as described in Example 1. X-gal staining was performed on the stable cell lines. Cells were fixed briefly with 10% formaldehyde in PBS and then stained with X-Gal (Molecular Probes, Eugene, Oreg.) for 2 to 6 hours. After 24 hours of treatment with 1 μM muristerone, 100% of the cells turned dark blue after 3 hours of staining. Thus, mammalian cells containing the modified ecdysone receptor VpEcR, a heterodimeric partner (RXR), and a reporter gene construct regulated by a modified ecdysone response element, function to efficiently express an exogenous gene in response to a ligand, e.g., ecdysone.

[6] = test system: N13 cells (293 cells with VpEcR, RXR and ecdysone inducible reporter); experiment: Kinetics of induction in N13 cells (luciferase activity); format: cell-based; details: 1 μM muristerone
Protocol: (§1) N13 cells were grown with varying concentrations of muristerone for 36 hours and then assayed for β-galactosidase activity (open squares) by standard ONPG assay or for luciferase activity (closed circles). […] N13 cells were grown in separate wells in the presence of 1 μM muristerone, harvested at varying times, and assayed for luciferase activity as described in Example 3.
Finally, the kinetics of muristerone mediated induction was measured. N13 cells were grown in separate wells in the presence of 1 μM muristerone, harvested at varying times, and assayed for luciferase activity. Inductions of 100-fold in 3 hrs., 1000 fold in 8 hrs., and maximal effects of 20,000 fold after 20 hours of treatment were observed (FIG. 3B).

[7] = test system: ecdysone inducible promoter (CD3-VpEcR; CD3-RXR; ESHβ); experiment: Northern blot of receptor/reporter double transgenic mice; format: in vivo; details: 10 mg intraperitoneal, RNA 48 hours after treatment, thymus
Protocol: To produce transgenic mice, the following DNA constructs were prepared and subsequently injected into fertilized eggs: CD3-VpEcR, CD3-RXR, ESHβ (Lee et al., J. Exp. Med. 175:1013-1025 (1992)). Two separate lines of transgenic mice were generated harboring either an ecdysone inducible reporter, ESHβ, or a T-cell specific expression construct of VpEcR and RXR, respectively. The former are referred to as reporter mice, the latter are referred to as receptor mice, and double transgenic mice are referred to as receptor/reporter mice. Constructs CD3-VpEcR and CD3-RXR were mixed and coinjected, while ESHB was injected alone. Primary genotyping was performed by Southern blot analysis and the transmission of transgenic mice was monitored by dot blot analysis. Receptor mice were analyzed for VpEcR and RXR expression by Northern blot analysis of RNA collected from these mice. For Northern blot analysis, 15 μg of total RNA obtained from the thymus, and various tissues as a control, was run on a denaturing gel and blotted onto a nitrocellulose membrane. The blot was probed with a radiolabeled β-gal-specific probe and exposed on film for 2 days. These receptor mice were healthy, fertile, and appeared normal by visual inspection. In addition, the transgene was transferred to the offspring as expected by Mendelian genetics. […]

[8] = test system: N13 cells (293 cells with VpEcR, RXR and ecdysone inducible reporter); experiment: Dose-response assay in N13 cells (β-galactosidase and luciferase reporters); format: cell-based; details: 36 hours
Protocol: as §1
FIG. 5 compares the dose-dependent activation of N13 cells with muristerone (X) and ponasterone A (open circles).
A dose-response assay was conducted by growing N13 cells with varying concentrations of muristerone for 36 hours and then assaying for β-galactosidase activity (using the well-known ONPG assay), or the cells were assayed for luciferase activity. […] One-hundred fold induction was achieved by muristerone concentrations as low as 100 nM (FIG. 3A).
A dose-response assay was conducted as described in Example 3, by growing N13 cells with varying concentrations of muristerone or ponasterone A for 36 hours and then assaying for β-galactosidase activity (using the well-known ONPG assay), or the cells were assayed for luciferase activity.

SMILES: CC(C)CC[C@@H](O)[C@](C)(O)[C@H]1CC[C@@]2(O)C3=CC(=O)[C@]4(O)C[C@@H](O)[C@@H](O)C[C@]4(C)[C@H]3[C@H](O)C[C@]12C [muristerone A]
- muristerone responsiveness (fold induction) [1]: 3 fold
- luciferase activity of serum from treated mice ([2]; intraperitoneal 10 μmg in sesame oil, serum after twelve hours, diluted 1:10 in DMEM): comparable to that seen from untreated mouse serum supplemented with 1 μM muristerone
- activity when injected into mice ([2]; mice, intraperitoneal): maintains its activity
- inactivation or blunting of activity by serum proteins ([2]; mouse serum): nor inactivated by serum binding proteins; also recorded: little or no blunting of activity
- toxicity [3]: neither toxic
- teratogenicity [4]: neither toxic, teratogenic
- cells turned dark blue (X-gal staining) [5]: 100%
- induction of luciferase activity ([6]; 3 hrs): 100 fold
- induction of luciferase activity ([6]; 8 hrs): 1000 fold
- maximal induction of luciferase activity ([6]; after 20 hours of treatment): 20,000 fold
- induction from an ecdysone inducible promoter (Northern blot) [7]: significant induction
- fold induction ([8]; concentrations as low as 100 nM): One-hundred
- inducibility of β-galactosidase and luciferase reporters ([8]; final concentration 10 μM): ~3 orders of magnitude
